Tests used:
U-2 OS cells = assay: Cytotox CALUX; conditions: 24 h exposure, lowest effect level PC20, means from 3 assay runs
[1] = system: U-2 OS reporter cell lines battery; assay: CALUX reporter gene assay battery as a whole; conditions: all CALUX assays, 13 concentrations, 24 h exposure
[2] = system: AP1 pathway activation / cell cycle control; assay: AP-1 CALUX; type: cell-based, human; conditions: 24 h exposure, lowest effect level PC10, means from 3 assay runs
Experimental: (§1) After 24 h, exposure medium was prepared. […] All samples were tested in triplicates. […] Fig. SM_4. […] Fig. SM_4.
(§2) Supplementary Material SM_4
(§3) Overview of CALUX assays.
(§4) This is defined as the concentration of test compound […]
(§5) for an antagonist assay is a PC20.
(§6) PC = positive control. FI = fold induction. PC10: concentration where test compound causes an activation equal to 10% of the maximum effect (positive control). PC20: concentration where test compound causes […]
(§7) FI=1.5: concentration where test
(§8) (A) exemplary graph of concentration- […]
(§9) receptor antagonism assay with PC20 as lowest-effect-level. (C) exemplary graph for assay with 1.5 fold inductionas lowest effect level. 9

Nrf2 (Oxidative stress) = assay: Nrf2 CALUX; type: cell-based, human; conditions: 24 h exposure, lowest effect level FI=1.5, means from 3 assay runs
Experimental: as §1, §2, §3, §4, §5, §6, §7, §8, §9

[3] = system: p53-dependent pathway activation / genotoxicity; type: cell-based, human; conditions: 24 h exposure, lowest effect level FI=1.5, means from 3 assay runs
Experimental: as §1, §2, §3, §4, §5, §6, §7, §8, §9

[4] = set-up: method as in Sommar et al. 2000; conditions: KAW < 0.03 considered non-volatile; ref Sommar et al. 2000; cited from earlier work
Progesterone receptor = biological target: T1, Progesterone receptor (Homo sapiens, UniProt P06401); assay: PR-anti CALUX; type: cell-based; conditions: 24 h exposure, lowest effect level PC20, reference agonist at EC50, means from 3 assay runs
T1 construct: host or cells: U-2 OS
T1 sequence (P06401 1-933): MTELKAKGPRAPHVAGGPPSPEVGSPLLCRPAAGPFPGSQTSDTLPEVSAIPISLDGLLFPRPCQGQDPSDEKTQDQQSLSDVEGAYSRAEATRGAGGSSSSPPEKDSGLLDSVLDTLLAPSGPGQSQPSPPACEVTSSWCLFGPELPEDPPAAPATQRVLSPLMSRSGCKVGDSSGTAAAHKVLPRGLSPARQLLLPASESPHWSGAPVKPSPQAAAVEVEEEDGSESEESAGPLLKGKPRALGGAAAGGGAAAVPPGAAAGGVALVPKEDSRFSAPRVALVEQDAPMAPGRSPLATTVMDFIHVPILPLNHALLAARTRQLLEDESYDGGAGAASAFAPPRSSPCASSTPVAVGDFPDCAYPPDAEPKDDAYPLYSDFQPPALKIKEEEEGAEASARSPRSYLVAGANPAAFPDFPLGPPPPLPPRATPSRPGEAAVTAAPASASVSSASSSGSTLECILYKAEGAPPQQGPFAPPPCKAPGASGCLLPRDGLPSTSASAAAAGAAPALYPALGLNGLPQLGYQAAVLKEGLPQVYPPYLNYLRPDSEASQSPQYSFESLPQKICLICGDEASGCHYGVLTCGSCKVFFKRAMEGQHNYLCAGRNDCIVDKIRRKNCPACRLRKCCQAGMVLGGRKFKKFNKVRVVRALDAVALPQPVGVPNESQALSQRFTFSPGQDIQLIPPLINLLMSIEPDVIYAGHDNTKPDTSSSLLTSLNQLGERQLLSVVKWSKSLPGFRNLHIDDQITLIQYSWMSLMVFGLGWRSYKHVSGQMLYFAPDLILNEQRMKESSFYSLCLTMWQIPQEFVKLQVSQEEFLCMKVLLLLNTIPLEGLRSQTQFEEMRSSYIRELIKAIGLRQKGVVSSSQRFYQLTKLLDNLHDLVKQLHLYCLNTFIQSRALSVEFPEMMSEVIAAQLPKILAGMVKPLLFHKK
Experimental: as §1, §2, §3, §4, §5, §6, §7, §8, §9

Pregnane X receptor = biological target: T2, Pregnane X receptor (Homo sapiens, UniProt O75469); assay: PXR CALUX; type: cell-based; conditions: 24 h exposure, lowest effect level PC10, means from 3 assay runs
T2 construct: host or cells: U-2 OS
T2 sequence (O75469 1-434): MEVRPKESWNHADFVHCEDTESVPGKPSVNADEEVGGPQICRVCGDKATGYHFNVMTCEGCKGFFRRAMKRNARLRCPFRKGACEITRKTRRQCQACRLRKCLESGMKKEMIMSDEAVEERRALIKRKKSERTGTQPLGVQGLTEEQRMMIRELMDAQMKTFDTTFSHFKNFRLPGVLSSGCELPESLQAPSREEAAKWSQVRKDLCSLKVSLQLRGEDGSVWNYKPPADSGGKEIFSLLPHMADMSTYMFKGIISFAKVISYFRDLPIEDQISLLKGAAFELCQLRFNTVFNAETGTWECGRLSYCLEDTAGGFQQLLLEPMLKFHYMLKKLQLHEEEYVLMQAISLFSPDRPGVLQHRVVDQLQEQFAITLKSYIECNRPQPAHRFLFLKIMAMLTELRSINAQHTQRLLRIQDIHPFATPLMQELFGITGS
Experimental: as §1, §2, §3, §4, §5, §6, §7, §8, §9

Estrogen receptor alpha [5] = biological target: T3, Estrogen receptor alpha (Homo sapiens, UniProt P03372); assay: ERa-anti CALUX; type: cell-based; conditions: 24 h exposure, lowest effect level PC20, reference agonist at EC50, means from 3 assay runs
T3 construct: host or cells: U-2 OS
T3 sequence (P03372 whole entry): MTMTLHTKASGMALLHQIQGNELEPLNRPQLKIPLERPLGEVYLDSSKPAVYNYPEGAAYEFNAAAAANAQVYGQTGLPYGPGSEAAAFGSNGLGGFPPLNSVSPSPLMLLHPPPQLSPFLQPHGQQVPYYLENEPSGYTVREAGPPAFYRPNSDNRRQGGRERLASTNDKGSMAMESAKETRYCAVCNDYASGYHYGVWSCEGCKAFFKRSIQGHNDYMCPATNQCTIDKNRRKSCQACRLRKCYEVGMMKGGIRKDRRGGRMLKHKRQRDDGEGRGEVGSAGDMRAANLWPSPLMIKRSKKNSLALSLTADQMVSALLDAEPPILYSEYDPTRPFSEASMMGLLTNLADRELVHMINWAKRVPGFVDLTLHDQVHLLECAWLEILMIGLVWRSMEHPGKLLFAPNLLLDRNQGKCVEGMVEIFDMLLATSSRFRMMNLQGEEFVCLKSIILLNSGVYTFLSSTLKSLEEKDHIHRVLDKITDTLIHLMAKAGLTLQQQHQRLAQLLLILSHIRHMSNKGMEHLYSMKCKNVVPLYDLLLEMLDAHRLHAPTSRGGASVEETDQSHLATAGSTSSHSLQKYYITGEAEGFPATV
Experimental: as §1
Cell line Endpoint effect Reference compound […]
ERa-anti CALUX Estrogen receptor antagonists PC20 tamoxifen […]
Cytotox CALUX Cytoxicity PC20 tributyltinacetate
as §2, §3, §4, §5, §6, §7, §8, §9

Androgen receptor = biological target: T4, Androgen receptor (Homo sapiens, UniProt P10275); type: cell-based; conditions: 24 h exposure, lowest effect level PC20, reference agonist at EC50, means from 3 assay runs
T4 construct: host or cells: U-2 OS
T4 sequence (P10275 1-920): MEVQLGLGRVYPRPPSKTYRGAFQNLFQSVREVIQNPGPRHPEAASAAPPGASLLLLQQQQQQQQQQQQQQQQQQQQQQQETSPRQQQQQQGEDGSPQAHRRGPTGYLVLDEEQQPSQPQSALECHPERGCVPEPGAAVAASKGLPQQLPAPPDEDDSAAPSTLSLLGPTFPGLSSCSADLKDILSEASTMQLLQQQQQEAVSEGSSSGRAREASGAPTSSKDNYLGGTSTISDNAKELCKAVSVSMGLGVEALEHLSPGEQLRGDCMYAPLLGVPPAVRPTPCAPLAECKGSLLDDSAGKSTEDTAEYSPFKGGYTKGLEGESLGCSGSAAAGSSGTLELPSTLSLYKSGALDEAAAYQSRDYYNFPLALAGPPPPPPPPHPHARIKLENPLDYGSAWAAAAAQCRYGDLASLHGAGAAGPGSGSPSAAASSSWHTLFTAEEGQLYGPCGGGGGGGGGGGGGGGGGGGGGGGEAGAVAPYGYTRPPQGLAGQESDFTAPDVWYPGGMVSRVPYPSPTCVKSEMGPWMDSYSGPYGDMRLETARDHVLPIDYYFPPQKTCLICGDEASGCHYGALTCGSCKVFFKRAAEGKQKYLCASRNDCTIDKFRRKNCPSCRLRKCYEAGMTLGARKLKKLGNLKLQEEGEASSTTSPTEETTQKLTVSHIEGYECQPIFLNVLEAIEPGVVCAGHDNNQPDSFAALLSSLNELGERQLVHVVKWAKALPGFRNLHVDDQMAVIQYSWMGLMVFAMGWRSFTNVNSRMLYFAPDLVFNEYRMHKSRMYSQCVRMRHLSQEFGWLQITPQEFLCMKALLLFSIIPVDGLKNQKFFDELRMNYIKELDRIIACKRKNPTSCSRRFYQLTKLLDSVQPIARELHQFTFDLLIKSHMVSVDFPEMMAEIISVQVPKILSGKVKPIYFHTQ
Experimental: as §1, §2, §3, §4, §5, §6, §7, §8, §9

[6] = set-up: method as in Nyffeler et al. 2018; conditions: cell culture plastic; ref Nyffeler et al. 2018; cited from earlier work
[7] = biological target: T5, Aryl Hydrocarbon receptor (Rattus norvegicus, UniProt P41738); assay: DR CALUX / AhR CALUX (rat hepatoma H-4-II-E cells); type: cell-based; conditions: 24 h exposure, lowest effect level PC10, means from 3 assay runs
T5 construct: host or cells: rat hepatoma H-4-II-E (ATCC CRL-1548)
T5 sequence (P41738 10-853): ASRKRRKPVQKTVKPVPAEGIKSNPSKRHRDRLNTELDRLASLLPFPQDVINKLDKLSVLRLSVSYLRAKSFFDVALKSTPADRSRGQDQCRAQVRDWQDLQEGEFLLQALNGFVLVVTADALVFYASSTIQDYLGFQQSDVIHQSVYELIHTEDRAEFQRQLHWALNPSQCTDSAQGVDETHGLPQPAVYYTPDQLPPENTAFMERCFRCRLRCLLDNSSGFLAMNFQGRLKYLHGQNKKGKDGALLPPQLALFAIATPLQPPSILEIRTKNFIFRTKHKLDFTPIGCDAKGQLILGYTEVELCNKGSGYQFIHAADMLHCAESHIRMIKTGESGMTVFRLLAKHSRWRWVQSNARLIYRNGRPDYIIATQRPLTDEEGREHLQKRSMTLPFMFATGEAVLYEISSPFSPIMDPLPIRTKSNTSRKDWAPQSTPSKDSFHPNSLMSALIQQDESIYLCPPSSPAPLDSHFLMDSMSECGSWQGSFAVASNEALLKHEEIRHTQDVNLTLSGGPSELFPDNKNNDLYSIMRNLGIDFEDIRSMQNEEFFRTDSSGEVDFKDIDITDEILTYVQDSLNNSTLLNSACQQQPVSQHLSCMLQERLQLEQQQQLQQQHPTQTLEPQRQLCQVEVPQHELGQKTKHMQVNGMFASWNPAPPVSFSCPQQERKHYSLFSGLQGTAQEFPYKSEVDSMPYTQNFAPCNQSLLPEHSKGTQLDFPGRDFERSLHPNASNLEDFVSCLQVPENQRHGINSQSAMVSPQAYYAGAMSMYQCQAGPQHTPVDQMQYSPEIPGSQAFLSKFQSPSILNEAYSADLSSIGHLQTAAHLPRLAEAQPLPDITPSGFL

Glucocorticoid receptor = biological target: T6, Glucocorticoid receptor (Homo sapiens, UniProt P04150); type: cell-based; conditions: 24 h exposure, lowest effect level PC20, reference agonist at EC50, means from 3 assay runs
T6 construct: host or cells: U-2 OS
T6 sequence (P04150 1-777): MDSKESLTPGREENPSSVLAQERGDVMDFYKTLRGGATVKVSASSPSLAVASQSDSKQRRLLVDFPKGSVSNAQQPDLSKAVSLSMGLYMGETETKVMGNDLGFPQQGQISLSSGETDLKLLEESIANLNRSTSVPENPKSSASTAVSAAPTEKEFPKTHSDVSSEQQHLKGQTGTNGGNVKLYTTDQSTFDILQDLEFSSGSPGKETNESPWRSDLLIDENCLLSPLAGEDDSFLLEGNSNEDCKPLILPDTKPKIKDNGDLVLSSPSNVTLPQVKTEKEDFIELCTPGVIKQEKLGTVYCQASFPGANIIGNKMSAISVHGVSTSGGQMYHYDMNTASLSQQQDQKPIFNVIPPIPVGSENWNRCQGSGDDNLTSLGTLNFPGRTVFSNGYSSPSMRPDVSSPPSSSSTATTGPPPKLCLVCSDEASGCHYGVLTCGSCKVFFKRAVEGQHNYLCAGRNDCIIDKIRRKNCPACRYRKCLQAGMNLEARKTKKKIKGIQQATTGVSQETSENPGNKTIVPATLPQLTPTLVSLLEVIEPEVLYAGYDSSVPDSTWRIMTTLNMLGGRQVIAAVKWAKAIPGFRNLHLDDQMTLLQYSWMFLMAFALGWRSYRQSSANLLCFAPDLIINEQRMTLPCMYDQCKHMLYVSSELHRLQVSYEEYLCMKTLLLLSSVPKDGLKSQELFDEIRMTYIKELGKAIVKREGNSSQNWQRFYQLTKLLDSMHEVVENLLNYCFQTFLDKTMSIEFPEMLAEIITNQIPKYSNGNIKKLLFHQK
Experimental: as §1, §2, §3, §4, §5, §6, §7, §8, §9

Estrogen receptor alpha [8] = biological target: T3, Estrogen receptor alpha; type: cell-based; conditions: 24 h exposure, lowest effect level PC10, means from 3 assay runs
Experimental: as §1, §2, §3, §4, §5, §6, §7, §8, §9

| SMILES | PoD cytotoxicity (U-2 OS cells) | response profile over the CALUX battery (in words) [1] | PoD AP1 [2] | PoD Nrf2 (Nrf2 (Oxidative stress)) | PoD p53 [3] | air-water partition coefficient KAW [4] | PoD PR - anta (Progesterone receptor) | PoD PXR - ago (Pregnane X receptor) | PoD Erα - anta (Estrogen receptor alpha [5]) | PoD AR - anta (Androgen receptor) | fraction of the compound bound to plastic [6] | PoD AhR - ago [7] | PoD GR - anta (Glucocorticoid receptor) | PoD Erα - ago (Estrogen receptor alpha [8]) |
| --- | --- | --- | --- | --- | --- | --- | --- | --- | --- | --- | --- | --- | --- | --- |
| [Cl][Hg][Cl] [Mercury chloride] | 4.7 -log(M) | only activated stress pathway related assays | 5.8 -log(M) | 5.5 -log(M) | 5.7 -log(M) | 0.02 |  |  |  |  |  |  |  |  |
| Clc1cc(Cl)c(-c2cc(Cl)c(Cl)c(Cl)c2Cl)cc1Cl [PCB180, polychlorinated biphenyl 180] |  | only activated nuclear hormone receptor related assays |  |  |  |  | 6.3 -log(M) | 5.5 -log(M) | 6.0 -log(M) | 6.1 -log(M) | about one third |  |  |  |
| O=P(Oc1ccccc1)(Oc1ccccc1)Oc1ccccc1 [Triphenyl phosphate] | 4.0 -log(M) | only activated nuclear hormone receptor related assays |  |  |  |  | 5.2 -log(M) | 6.1 -log(M) |  |  |  | 4.2 -log(M) | 4.8 -log(M) | 5.4 -log(M) |

— article PMC7367925, “The EU-ToxRisk method documentation, data processing and chemical testing pipeline for the regulatory use of new approach methods” (Archives of Toxicology, 2020)
